The text below walks through data of US20220364056A1, “SHORT-CHAIN FATTY ACID PENTANOATE AS ENHANCER FOR CELLULAR THERAPY AND ANTI-TUMOR THERAPY” (PHILIPPS-UNIVERSITÄT MARBURG, priority 2019, published 2022).

The test system of test [1] is promoter region of Ifnγ, Tbx21 and Eomes. Briefly: pan-H4Ac ChIP at CTL-characteristic loci. The test is classed as cell-based, mice. The settings on record: 24 hours of treatment. The protocol: (A) Experimental design for the treatment of CTLs with the water-soluble fraction of intestinal content derived from SPF or GF mice. (B and C) Frequencies of IFN-γ- and TNF-α-producing CTLs treated with the extract from luminal content derived from indicated organs. Representative results of two experiments are shown (n=3). (D) ELISA was performed to measure the secretion of TNF-α by CLTs treated as shown in (A). (E) Quantitative measurement of total SCFA amounts in fecal samples of SPF and GF mice (n=5). (F and G) The percentage of IFN-γ^+ TNF-α^+ CTLs treated with the indicated SCFAs for three days (n=3, one of three independent experiments is shown). (H) The secretion of TNF-α from CTLs treated with SCFAs was determined by ELISA (n=3, one of two independent experiments is shown). (I) The fluorogenic HDAC assay was applied to measure the HDAC inhibitory activity of SCFAs on CTLs. The value for unstimulated CTLs was arbitrarily set to 1.0. Four independent experiments were performed. (J and K) Representative contour plots (J) and bar graphs (K) showing the frequency of IFN-γ+ and TNF-α+ cells after pentanoate (2 mM) or VPA (0.5 mM) administration. Three similar experiments were performed. (L and M) The frequency of Eomes- and T-bet-expressing CTLs treated with pentanoate (2 mM) or VPA (0.5 mM) for three days was analyzed by flow cytometry (n=4). […]

The subject of a further test is PancOVA cells. Nature of the test: adoptive transfer of pretreated OT-I CTLs into mice bearing s.c. PancOVA tumors. The test is classed as in vivo. An excerpt: We tested this hypothesis in two different subcutaneous (s.c.) tumor models. We injected s.c. B16OVA melanoma cells into CD45.2^+ mice and transferred either control or pentanoate-treated CD45.1^+ OT-I CTLs into recipient animals on day 5 after tumor injection. […] On day 10 after adoptive transfer of CTLs, we detected a higher number of pentanoate-treated cells expressing more effector cytokines TNF-α and IFN-γ in comparison to control OT-I CTLs in tumors, draining LNs and spleen (FIG. 2, E-G). Furthermore, the anti-tumor effects mediated by treatment of CTLs with pentanoate were tested in aggressive pancreatic tumors expressing OVA protein (OVA-expressing Panc02 cells, PancOVA). To this end, 1.5×10^6 PancOVA cells were injected s.c. into CD45.2^+ mice. […] One area of application is CAR therapy.
(A) Experimental design for the role of SCFAs in promoting anti-tumor immunity. (B-D) After three days of pre-treatment with pentanoate, CD45.1^+ OVA-specific CTLs were transferred intraperitoneally (i.p.) into CD45.2^+ mice bearing 5-days old B16OVA tumors. Tumor volume and tumor mass were analyzed (n=3 mice per group, one of three independent experiments is shown). […]
Tumor weight was determined on day 23 post tumor inoculation. […]

The next test relates to CTLs. Briefly: extracellular acidification rate (ECAR) of CTLs. The test is classed as cell-based, murine. The settings on record: 2.5 mM pentanoate, three days. The protocol:
(A and B) CTLs were cultured in medium containing 1.0% FCS and treated with pentanoate (2.5 mM) for three days. Representative histogram plots and bar graphs indicate the phoshorylated levels of mTOR (A) and S6 ribosomal protein (B), respectively (n=3 pooled from three independent experiments). (C and D) Human CTLs were cultured in medium containing 1.0% serum and treated with indicated HDACi for three days. Representative histogram plots and bar graphs indicate the phoshorylated levels of mTOR (C) and S6 ribosomal protein (D), respectively (data points represent four individual healthy donors) (E) Measurement of extracellular acidification rate (ECAR) for in vitro generated murine CTLs cultured with or without 2.5 mM pentanoate for three days. ECAR was measured under basal conditions and in response to glucose (10 mM), oligomycin (2 μM), and 2-deoxy-glucose (2-DG, 100 mM). One of three independent experiments is shown.

In test [2] the test system is murine ROR1-recognizing CAR T lymphocytes. Briefly: murine ROR1-specific CAR T cells stimulated with HDACi, ELISA and flow cytometry. The class given is cell-based. As to conditions: three days of stimulation. On the procedure: (A) Experimental design for the analysis HDACi-treated ROR1-specific CD8^+ CAR T cells (CARROR1+HDAC). (B and C) The production of TNF-α and IFN-γ from CAR T cells was measured by ELISA and flow cytometry analysis after three days of stimulation with the indicated HDACi. (D) The surface expression of CD25 on CAR T cells was measured by flow cytometry analysis after three days of stimulation with the indicated HDACi (n=3 combined from 3 independent experiments). (E and F) After three days of pre-treatment with pentanoate, CD19t^+ ROR1-specific CAR T cells were transferred intraperitoneally (i.p) into mice bearing 5-days old PancROR1 tumors. In E, Tumor volume and tumor mass were analyzed (n=3 mice/group/experiment combined from 2 independent experiments). (F) The percentage and total cell number of transferred TNF-α and IFN-γ CD19t^+ ROR1-specific CART cells in the tumor tissue at day 14 after tumor inoculation are shown.
In general terms: ELISA stands for enzyme-linked immunosorbent assay.

Test [3] concerns ROR1-expressing Panc02 pancreatic tumor cells (PancROR1). Nature of the test: transfer of pretreated ROR1-specific CAR T cells into mice bearing s.c. PancROR1 tumors. The test is classed as in vivo.

Regarding `CCCCC(=O)O` [pentanoate], in test [1], the “H4 acetylation at the promoter region of Ifnγ, Tbx21 and Eomes” value is listed as “enhance H4 acetylation”. In addition, the “growth of PancOVA cells in recipient animals” value with PancOVA cells (7.5×10^5 pentanoate-treated OT-I CD8+ T lymphocytes) is reported as “completely eliminate the growth”. For the same compound, in the test with PancOVA cells (day 23 after tumor inoculation), the “persistence of transferred CTLs within draining LNs and spleen” value is given as “persistence of pentanoate-treated CTLs with high IFN-γ production”. For the same compound, in the test with CTLs, the “extracellular acidification rate (ECAR)” value is listed as “increased”. In addition, in test [2], the “TNF-α and IFN-γ production of CAR T cells” value is on record as “enhanced”; the “expression of CD25 on CAR T cells” value is “enhanced”. In test [3] (day 10 following administration of pentanoate-treated CAR T cells), the “tumor volume and weight” value is listed as “significantly diminished”. In addition, in test [3] (vs control CAR T lymphocytes), the “frequency and number of IFN-γ+TNF-α+ CAR T cells in tumors” value was “elevated frequency and number”.
